Converted amounts (≈) assume the structure as drawn.
Key:
[1] = test system: protoplasts of S. aureus ATCC43300 resistant strain; experiment: Effect on protoplasts; format: cell-based, Staphylococcus aureus; settings: concentration equivalent to 4 times the MIC; after ten minutes
Description: The importance of this hit compound is further underlined by its very promising minimum inhibitory concentrations (MICs) against several Gram-positive bacterial strains, including MRSA (32 µg/mL). […] This assumption is confirmed by the fact that for S. aureus ATCC25923 strain, sensitive to penicillin and devoid of PBP2a, compound 1 has the same MIC value as for the other two resistant S. aureus strains (Table 2) where PBP2a is present. To better understand the antibacterial activity of compound 1, we performed an experiment to evaluate the effect of compound 1 on the protoplasts of S. aureus ATCC43300 resistant strain, at a concentration equivalent to 4 times the MIC. […] Further analysis is needed to better understand the precise mode of action of these inhibitors on the bacterial cell.

[2] = test system: Pseudomonas aeruginosa ATCC 27853; experiment: In-vitro antibacterial activity (MIC, broth microdilution); format: cell-based; settings: ATCC27853
Procedure, shortened: (§1)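 Broth microdilution in Müller-Hinton broth per EUCAST/CLSI, compounds dissolved in MHB just before use. Inoculum from 18 h colonies set to 0.5 McFarland (~1×10^8 CFU mL^−1) in saline, then diluted 200-fold in MHB.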

[3] = test system: Micrococcus luteus ATCC 9341; experiment: as above; format: cell-based; settings: ATCC9341
Procedure, shortened: as §1

[4] = test system: Streptococcus pneumoniae ATCC 49619; experiment: as above; format: cell-based; settings: ATCC49619
Procedure, shortened: as §1

[5] = test system: Citrobacter freundii ATCC 8090; experiment: as above; format: cell-based; settings: ATCC8090
Procedure, shortened: as §1

[6] = test system: Proteus mirabilis ATCC 29936; experiment: as above; format: cell-based; settings: ATCC29936
Procedure, shortened: as §1

PBP5fm = PBP5fm (Enterococcus faecium, UniProt Q47759); experiment: PBP5fm enzymatic inhibition assay (fluorescein-labeled ampicillin, residual penicillin binding activity); format: biochemical, Enterococcus faecium D63r; settings: 4 h; residual activity of the enzyme at 1 mM inhibitor; 0.01% Triton X-100; read-out: PBP5fm RA [%]
Description: PBP2a from Staphylococcus aureus ATCC 43300 and PBP5fm from Enterococcus faecium D63r were overproduced and purified as described previously, [18].
Each of the purified PBPs (2.5 µM) were first incubated with 1 mM potential inhibitor in 100 mM phosphate buffer, 0.01% Triton X-100[19], pH 7, for 4 h at 30°C. Then, 25 µM fluorescein-labeled ampicillin[20] was added to detect the residual penicillin binding activity (RA). The samples were further incubated for 30 min at 37°C in a total volume of 20 µL. Denaturation buffer was added (0.1 M Tris/HCl, pH 6.8, containing 25% glycerol, 2% SDS, 20% β-mercaptoethanol and 0.02% bromophenol blue) and the samples were heated to 100°C for 1 min. The samples were then loaded onto a 10% SDS-acrilamide gel (10×7 cm) and electrophoresis was performed for 45 min at 180 V (12 mA). Detection and quantification of the RAs were with Molecular Image FX equipment and Quantity One software (BioRad, Hercules, CA, USA). Three independent experiments were carried out for each inhibitor.

[7] = test system: S. aureus ATCC43300 resistant strain; experiment: Killing curves experiments; format: cell-based, Staphylococcus aureus; settings: concentration equivalent to 4 times the MIC; data not shown

Sequence of PBP5fm (Q47759 entry or part of it): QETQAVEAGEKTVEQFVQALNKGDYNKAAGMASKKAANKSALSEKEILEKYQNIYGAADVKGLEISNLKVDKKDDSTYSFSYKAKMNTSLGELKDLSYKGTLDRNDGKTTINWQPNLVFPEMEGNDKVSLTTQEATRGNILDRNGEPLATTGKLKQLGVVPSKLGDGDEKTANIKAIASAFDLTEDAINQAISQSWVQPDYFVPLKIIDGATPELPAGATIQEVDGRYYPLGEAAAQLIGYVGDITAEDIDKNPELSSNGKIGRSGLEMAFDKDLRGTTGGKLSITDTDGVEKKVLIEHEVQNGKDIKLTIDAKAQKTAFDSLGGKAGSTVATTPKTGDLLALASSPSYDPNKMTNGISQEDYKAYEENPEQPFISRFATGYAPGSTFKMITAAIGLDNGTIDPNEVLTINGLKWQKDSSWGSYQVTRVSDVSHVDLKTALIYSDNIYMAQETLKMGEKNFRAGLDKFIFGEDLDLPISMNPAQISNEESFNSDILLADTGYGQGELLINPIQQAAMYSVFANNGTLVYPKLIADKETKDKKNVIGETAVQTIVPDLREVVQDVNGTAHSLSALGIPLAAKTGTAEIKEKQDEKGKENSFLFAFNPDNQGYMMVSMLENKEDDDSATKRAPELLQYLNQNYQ

CCCCOc1ccc2cc(S(=O)(=O)Nc3ccccc3C(=O)O)ccc2c1 [compound 1, 2-(6-butoxynaphthalene-2-sulfonamido)benzoic acid]
effect on protoplasts [1]: complete lysis of protoplasts
MIC [2]: > 1020 µg/mL
MIC [3]: 2 µg/mL (≈ 5.01 µM)
MIC [4]: 1 µg/mL (≈ 2.5 µM)
MIC [5]: > 1020 µg/mL
MIC [6]: > 1020 µg/mL
activity at 1000 µM (PBP5fm): 100%
killing curves, bacterial count [7]: no viable cells were observed after 120 min

Source: paper PMC3090393, “New Noncovalent Inhibitors of Penicillin-Binding Proteins from Penicillin-Resistant Bacteria” (PLoS ONE, 2011)
